Laboratory results taken from patent US20260317324A1, “BIFUNCTIONAL COMPOUNDS FOR DEGRADING BRAF VIA UBIQUITIN PROTEOSOME PATHWAY” (Nurix Therapeutics, Inc., priority 2023, published 2026).

Molecular target: T1, BRAF V600E (Homo sapiens, UniProt P15056, V600E)
T1 construct: endogenous C-terminal HiBiT fusion tag on BRAF V600E allele; endogenous in cells; host or cells: A375 clone 1F10 (CRISPR-Cas9 knock-in of the HiBiT tag; parental A375 from ATCC)
Test: BRAF HiBiT degradation assay, C-terminal HiBiT-tagged BRAF V600E A375 cells (clone 1F10), Nano-Glo HiBiT Lytic assay
Type: cell-based
Conditions: for Dmax: A-375
Outline: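 A375 cells (clone 1F10, endogenous C-terminal HiBiT on BRAF V600E) were seeded at 10,000 cells/well, grown 24 h, then dosed in duplicate with an 11-point series from 1 μM to 0.01 nM (0.2% DMSO). Nano-Glo HiBiT lytic luminescence was normalised to DMSO and wildtype-A375 background; DC50 was read at 50% protein remaining, alongside observed Dmax.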

[1] = A375 (BRAF V600E), DC50 at 50%: fitted conc. at Y=50
[2] = A375 (BRAF V600E), percentage protein degraded at maximal compound effect relative to DMSO

T1 sequence (P15056 whole entry V600E, the tested form may be a part): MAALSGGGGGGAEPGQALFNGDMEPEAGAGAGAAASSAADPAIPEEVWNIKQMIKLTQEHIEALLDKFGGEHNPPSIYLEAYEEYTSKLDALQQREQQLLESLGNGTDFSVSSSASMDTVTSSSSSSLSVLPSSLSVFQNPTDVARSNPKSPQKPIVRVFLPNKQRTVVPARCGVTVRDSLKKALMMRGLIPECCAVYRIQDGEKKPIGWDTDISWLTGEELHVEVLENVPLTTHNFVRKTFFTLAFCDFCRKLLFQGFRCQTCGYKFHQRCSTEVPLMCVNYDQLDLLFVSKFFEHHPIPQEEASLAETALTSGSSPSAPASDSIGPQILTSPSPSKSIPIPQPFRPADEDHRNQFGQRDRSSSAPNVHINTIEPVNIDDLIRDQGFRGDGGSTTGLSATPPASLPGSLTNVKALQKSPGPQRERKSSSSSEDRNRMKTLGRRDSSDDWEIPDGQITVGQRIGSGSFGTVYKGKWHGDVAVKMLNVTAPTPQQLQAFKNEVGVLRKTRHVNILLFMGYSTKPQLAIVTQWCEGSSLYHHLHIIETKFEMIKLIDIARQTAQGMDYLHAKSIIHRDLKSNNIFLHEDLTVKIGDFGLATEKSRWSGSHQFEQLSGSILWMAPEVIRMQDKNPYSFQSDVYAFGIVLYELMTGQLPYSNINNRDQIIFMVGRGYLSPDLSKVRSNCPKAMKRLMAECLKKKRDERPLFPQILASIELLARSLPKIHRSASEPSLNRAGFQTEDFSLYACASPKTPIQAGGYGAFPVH

| Compound | DC50 [1] [nM] | Dmax [2] [%] | DC50 (A375 (BRAF V600E, Class 1), DC50 at 50% degradation) [nM] | Dmax (A375 (BRAF V600E, Class 1), observed Dmax, % protein degraded relative to DMSO control) [%] |
| --- | --- | --- | --- | --- |
| CCCS(=O)(=O)Nc1cccc(-c2nc(C(C)(C)C)sc2-c2ccnc(Nc3ccc(C4CCN(CC5CCN(c6ccc(C(=O)NC7CCC(=O)NC7=O)nc6)CC5)CC4)cc3)n2)c1F (racemic) [Compound 169, Rac-5-{4-[(4-{4-[(4-{2-tert-butyl-4-[2-fluoro-3-(propane-1-sulfonamido)phenyl]-1,3-thiazol-5-yl}pyrimidin-2-yl)amino]phenyl}piperidin-1-yl)methyl]piperidin-1-yl}-N-[(3R)-2,6-dioxopiperidin-3-yl]pyridine-2-carboxamide] | 50 to 500 | 30 to 70 | – | – |
| CCCS(=O)(=O)Nc1cccc(-c2cn(C3CCN(C(=O)C4CCN(C(=O)C5CCN(c6ccc(C7CCC(=O)NC7=O)cc6)CC5)CC4)CC3)nc2-c2ccncc2)c1F (racemic) [Compound 9, Rac-N-[3-(1-{1-[1-(1-{4-[(3R)-2,6-dioxopiperidin-3-yl]phenyl}piperidine-4-carbonyl)piperidine-4-carbonyl]piperidin-4-yl}-3-(pyridin-4-yl)-1H-pyrazol-4-yl)-2-fluorophenyl]propane-1-sulfonamide] | 50 to 500 | > 70 | – | – |
| CCCS(=O)(=O)Nc1cccc(-c2nc(C3CCN(C4CN(C(=O)CC5(O)CCN(c6ccc(NC7CCC(=O)NC7=O)cc6F)CC5)C4)CC3)sc2-c2ccnc(N)n2)c1F (racemic) [Compound 214, Rac-N-{3-[5-(2-aminopyrimidin-4-yl)-2-[1-(1-{2-[1-(4-{[(3R)-2,6-dioxopiperidin-3-yl]amino}-2-fluorophenyl)-4-hydroxypiperidin-4-yl]acetyl}azetidin-3-yl)piperidin-4-yl]-1,3-thiazol-4-yl]-2-fluorophenyl}propane-1-sulfonamide] | 10 to 50 | 30 to 70 | – | – |
| CCCS(=O)(=O)Nc1cccc(-c2nc(C(C)(C)C)sc2-c2ccnc(Nc3ccc(C4CCN(C(=O)C[C@@H]5CCN(c6ccc7c(c6)n(C)c(=O)n7C6CCC(=O)NC6=O)C5)CC4)cc3)n2)c1F (mixture of isomers) [Compound 162, N-{3-[2-tert-butyl-5-(2-{[4-(1-{2-[(3S)-1-{1-[(3RS)-2,6-dioxopiperidin-3-yl]-3-methyl-2-oxo-2,3-dihydro-1H-1,3-benzodiazol-5-yl}pyrrolidin-3-yl]acetyl}piperidin-4-yl)phenyl]amino}pyrimidin-4-yl)-1,3-thiazol-4-yl]-2-fluorophenyl}propane-1-sulfonamide] | 10 to 50 | 30 to 70 | – | – |
| CCCS(=O)(=O)Nc1cccc(-c2nc(C3CCN(C(=O)C4(C)CCN(C(=O)C5CCN(c6ccc(C7CCC(=O)NC7=O)cc6)CC5)CC4)CC3)sc2-c2ccnc(N)n2)c1F (racemic) [Compound 196, Rac-N-{3-[5-(2-aminopyrimidin-4-yl)-2-{1-[1-(1-{4-[(3R)-2,6-dioxopiperidin-3-yl]phenyl}piperidine-4-carbonyl)-4-methylpiperidine-4-carbonyl]piperidin-4-yl}-1,3-thiazol-4-yl]-2-fluorophenyl}propane-1-sulfonamide] | < 10 | > 70 | – | – |
| CCCS(=O)(=O)Nc1cccc(-c2nc(C3(C)CCN(C(=O)CC4CCN(C5CCN(c6ccc7c(c6)C(=O)N(C6CCC(=O)NC6=O)C7=O)CC5)CC4)CC3)sc2-c2ccnc(N)n2)c1F (racemic) [Compound 249, Rac-N-{3-[5-(2-aminopyrimidin-4-yl)-2-{1-[2-(1′-{2-[(3R)-2,6-dioxopiperidin-3-yl]-1,3-dioxo-2,3-dihydro-1H-isoindol-5-yl}-[1,4′-bipiperidin]-4-yl)acetyl]-4-methylpiperidin-4-yl}-1,3-thiazol-4-yl]-2-fluorophenyl}propane-1-sulfonamide] | – | – | 50 to 500 | 30 to 70 |
| CCCS(=O)(=O)Nc1cccc(-c2nc(C(C)(C)C)sc2-c2ccnc(Nc3ccc(C4CCN(C(=O)C5CCN(c6ccc(C7CCC(=O)NC7=O)cn6)CC5)CC4)cc3)n2)c1F (racemic) [Compound 156, Rac-N-(3-{2-tert-butyl-5-[2-({4-[1-(1-{5-[(3R)-2,6-dioxopiperidin-3-yl]pyridin-2-yl}piperidine-4-carbonyl)piperidin-4-yl]phenyl}amino)pyrimidin-4-yl]-1,3-thiazol-4-yl}-2-fluorophenyl)propane-1-sulfonamide] | 10 to 50 | > 70 | – | – |
| CCCS(=O)(=O)Nc1cccc(-c2nc(C3CCC4(CC3)CCN(C(=O)CN3CCN(c5ccc6c(c5)C(=O)N(C5CCC(=O)NC5=O)C6=O)CC3)CC4)sc2-c2ccnc(N)n2)c1F (racemic) [Compound 231, Rac-N-{3-[5-(2-aminopyrimidin-4-yl)-2-{3-[2-(4-{2-[(3R)-2,6-dioxopiperidin-3-yl]-1,3-dioxo-2,3-dihydro-1H-isoindol-5-yl}piperazin-1-yl)acetyl]-3-azaspiro[5.5]undecan-9-yl}-1,3-thiazol-4-yl]-2-fluorophenyl}propane-1-sulfonamide] | < 10 | 30 to 70 | – | – |
| CCCS(=O)(=O)Nc1cccc(-c2nc(C)sc2-c2ccnc(Nc3ccc(N4CCN(CC5(F)CCN(c6ccc(C7CCC(=O)NC7=O)cc6)CC5)CC4)cc3)n2)c1F (racemic) [Compound 31, Rac-N-[3-(5-{2-[(4-{4-[(1-{4-[(3R)-2,6-dioxopiperidin-3-yl]phenyl}-4-fluoropiperidin-4-yl)methyl]piperazin-1-yl}phenyl)amino]pyrimidin-4-yl}-2-methyl-1,3-thiazol-4-yl)-2-fluorophenyl]propane-1-sulfonamide] | 10 to 50 | > 70 | – | – |
| CCCS(=O)(=O)Nc1cccc(-c2nc(C(C)(C)C)sc2-c2ccnc(Nc3cnn(CC4CCN(C(=O)CN5CCN(c6cc(C7CCC(=O)NC7=O)ccn6)CC5)CC4)c3)n2)c1F (racemic) [Compound 113, Rac-N-{3-[2-tert-butyl-5-(2-{[1-({1-[2-(4-{4-[(3R)-2,6-dioxopiperidin-3-yl]pyridin-2-yl}piperazin-1-yl)acetyl]piperidin-4-yl}methyl)-1H-pyrazol-4-yl]amino}pyrimidin-4-yl)-1,3-thiazol-4-yl]-2-fluorophenyl}propane-1-sulfonamide] | 10 to 50 | > 70 | – | – |
| CCCS(=O)(=O)Nc1cccc(-c2nc(C(C)(C)C)sc2-c2ccnc(NC3CC4(C3)CN(CC3CCN(CC5CCN(c6ccc(C7CCC(=O)NC7=O)cc6)CC5)CC3)C4)n2)c1F (racemic) [Compound 142, Rac-N-{3-[2-tert-butyl-5-(2-{[2-({1-[(1-{4-[(3R)-2,6-dioxopiperidin-3-yl]phenyl}piperidin-4-yl)methyl]piperidin-4-yl}methyl)-2-azaspiro[3.3]heptan-6-yl]amino}pyrimidin-4-yl)-1,3-thiazol-4-yl]-2-fluorophenyl}propane-1-sulfonamide] | 50 to 500 | 30 to 70 | – | – |
| CCCS(=O)(=O)Nc1cccc(-c2nc(C(C)(C)C)sc2-c2ccnc(Nc3ccc(C4CCN(C(=O)C[C@@H]5CCN(c6ccc(C7CCC(=O)NC7=O)cc6)C5)CC4)cc3)n2)c1F (mixture of isomers) [Compound 166, N-{3-[2-tert-butyl-5-(2-{[4-(1-{2-[(3S)-1-{4-[(3RS)-2,6-dioxopiperidin-3-yl]phenyl}pyrrolidin-3-yl]acetyl}piperidin-4-yl)phenyl]amino}pyrimidin-4-yl)-1,3-thiazol-4-yl]-2-fluorophenyl}propane-1-sulfonamide] | 50 to 500 | 30 to 70 | – | – |
| CCCS(=O)(=O)Nc1cccc(-c2nc(C(C)(C)C)sc2-c2ccnc(Nc3cccc(OC4CCN(C(=O)[C@H]5CC[C@H](Oc6ccc(C7CCC(=O)NC7=O)cc6)CC5)CC4)c3)n2)c1F (mixture of isomers) [Compound 98, N-{3-[2-tert-butyl-5-(2-{[3-({1-[(1r,4r)-4-{4-[(3RS)-2,6-dioxopiperidin-3-yl]phenoxy}cyclohexanecarbonyl]piperidin-4-yl}oxy)phenyl]amino}pyrimidin-4-yl)-1,3-thiazol-4-yl]-2-fluorophenyl}propane-1-sulfonamide] | 10 to 50 | 30 to 70 | – | – |
| CCCS(=O)(=O)Nc1cccc(-c2cn(-c3ccc(C(=O)N4CCN(C(=O)CC5CCN(c6ccc(C7CCC(=O)NC7=O)cn6)CC5)CC4)cc3)nc2-c2ccncc2)c1F (racemic) [Compound 13, Rac-N-{3-[1-(4-{4-[2-(1-{5-[(3R)-2,6-dioxopiperidin-3-yl]pyridin-2-yl}piperidin-4-yl)acetyl]piperazine-1-carbonyl}phenyl)-3-(pyridin-4-yl)-1H-pyrazol-4-yl]-2-fluorophenyl}propane-1-sulfonamide] | 10 to 50 | > 70 | – | – |
| CCCS(=O)(=O)Nc1cccc(-c2nc(C)sc2-c2ccnc(Nc3ccc(N4CCN(CC5(C)CCN(c6ccc(C7CCC(=O)NC7=O)cn6)CC5)CC4)cc3)n2)c1F (racemic) [Compound 32, Rac-N-[3-(5-{2-[(4-{4-[(1-{5-[(3R)-2,6-dioxopiperidin-3-yl]pyridin-2-yl}-4-methylpiperidin-4-yl)methyl]piperazin-1-yl}phenyl)amino]pyrimidin-4-yl}-2-methyl-1,3-thiazol-4-yl)-2-fluorophenyl]propane-1-sulfonamide] | < 10 | > 70 | – | – |
| CCCS(=O)(=O)Nc1cccc(-c2nc(C3CCN(C(=O)CN4CCC5(CC4)CN(c4ccc6c(c4)C(=O)N(C4CCC(=O)NC4=O)C6=O)C5)CC3)sc2-c2ccnc(N)n2)c1F (racemic) [Compound 239, Rac-N-{3-[5-(2-aminopyrimidin-4-yl)-2-{1-[2-(2-{2-[(3R)-2,6-dioxopiperidin-3-yl]-1,3-dioxo-2,3-dihydro-1H-isoindol-5-yl}-2,7-diazaspiro[3.5]nonan-7-yl)acetyl]piperidin-4-yl}-1,3-thiazol-4-yl]-2-fluorophenyl}propane-1-sulfonamide] | < 10 | > 70 | – | – |
